Some test systems named below: SK-OV-3 ovarian; A498 renal; SK-MEL-28 melanoma; NCI-H226 lung; DU-145 prostate; TK-10 renal; NCI-H460 lung; SK-MEL-5 melanoma; SNB-75 CNS; UO-31 renal.
Holding throughout (test): growth of human tumour cells (NCI), 48 h

Results on 18 compounds are retold here after PubChem BioAssay (NCI).

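Tested at 5 concentrations; 48 h exposure; 96-well plates; endpoints linearly interpolated, else capped at highest concentration. Abbreviation: GI50, concentration required for 50% inhibition of growth. The concentration for full growth arrest is given as TGI.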

With `N=C1C=C(N)C(=O)c2[nH]c(=O)ccc21`, the TGI in the experiment on SK-OV-3 ovarian came out at 26.7 µM; in the experiment with A498 renal it was 6.52 µM; with SK-MEL-28 melanoma, 36.8 µM; with NCI-H226 lung it was 6.04 µM; in the experiment with DU-145 prostate, 21.4 µM; with TK-10 renal, 24.9 µM. For the same compound, the TGI with NCI-H460 lung came out at 6.95 µM; in the experiment with SK-MEL-5 melanoma it was 3.22 µM.

In the case of `Cc1nc(N)nc2ccccc12`, the TGI in the experiment on SNB-75 CNS, in the experiment on SK-OV-3 ovarian, with A498 renal, with SK-MEL-28 melanoma, in the experiment on UO-31 renal and in the experiment on DU-145 prostate was more than 100 µM each time. Besides, the TGI in the experiment on TK-10 renal, with NCI-H460 lung and in the experiment with SK-MEL-5 melanoma was more than 100 µM each time.

Take `CCN(CC)CCN(C(=O)C(C)(C)C)c1ccccc1N`: the TGI in the experiment with SNB-75 CNS, in the experiment with SK-OV-3 ovarian, with SK-MEL-28 melanoma, in the experiment on UO-31 renal, in the experiment on NCI-H226 lung and in the experiment on DU-145 prostate was more than 100 µM throughout. The TGI in the experiment with TK-10 renal, with NCI-H460 lung and in the experiment on SK-MEL-5 melanoma was more than 100 µM in each case.

Take `CC1(C)CC[C@]2(C(N)=O)CC[C@]3(C)C(=CC[C@@H]4[C@@]5(C)C/C(=C/c6ccncc6)C(=O)C(C)(C)[C@@H]5CC[C@]43C)[C@@H]2C1`: the GI50 is 2.48 µM with SNB-75 CNS; 3.13 µM with SK-OV-3 ovarian; 1.7 µM with A498 renal; 1.81 µM in the experiment on SK-MEL-28 melanoma; 1.48 µM in the experiment with UO-31 renal; 2.91 µM with DU-145 prostate. In addition, the GI50 in the experiment on TK-10 renal is 2.43 µM; in the experiment with SK-MEL-5 melanoma, 1.77 µM. In addition, the TGI with SNB-75 CNS was 8.22 µM; in the experiment on SK-OV-3 ovarian, 11.9 µM; in the experiment on A498 renal, 3.38 µM; in the experiment with SK-MEL-28 melanoma, 3.39 µM; in the experiment with UO-31 renal it was 2.91 µM; in the experiment with DU-145 prostate, 7.85 µM. For the same compound, the figures for the TGI in the experiment with TK-10 renal and in the experiment on SK-MEL-5 melanoma were 7.5 µM and 3.27 µM, respectively.

As to `COC1(OC)c2no[n+]([O-])c2C(OC)(OC)c2c1no[n+]2[O-]`, the TGI in the experiment on SNB-75 CNS is 83.3 µM; in the experiment on A498 renal, 34.6 µM; in the experiment with SK-MEL-28 melanoma, 32.1 µM; in the experiment with UO-31 renal, more than 100 µM; with NCI-H226 lung, 64 µM; in the experiment on DU-145 prostate, more than 100 µM. Further, the TGI was 31.5 µM with TK-10 renal, more than 100 µM in the experiment with NCI-H460 lung and 28.6 µM in the experiment with SK-MEL-5 melanoma.

On to `COc1cccc(C2NC(=S)NC(C)=C2C(=O)Nc2ccc(Cl)c(Cl)c2)c1` (stereo not drawn), for which the GI50 in the experiment with SNB-75 CNS was 34.8 µM; with SK-OV-3 ovarian, 21.3 µM; in the experiment on SK-MEL-28 melanoma, 13.3 µM; in the experiment with UO-31 renal it was 9.1 µM; in the experiment on NCI-H226 lung, 12.1 µM; with DU-145 prostate it was 0.00711 µM. Also, the GI50 is 12.8 µM with TK-10 renal, 8.21 µM with NCI-H460 lung and 8.43 µM in the experiment on SK-MEL-5 melanoma. In addition, the TGI in the experiment on SNB-75 CNS was more than 50 µM; in the experiment with SK-OV-3 ovarian, more than 50 µM; with SK-MEL-28 melanoma, 47.7 µM; in the experiment on UO-31 renal, 17.9 µM; with NCI-H226 lung it was 30.7 µM; in the experiment with DU-145 prostate, 12 µM. Also, the TGI in the experiment on TK-10 renal was determined as 28.6 µM; in the experiment on NCI-H460 lung, 16.3 µM; in the experiment on SK-MEL-5 melanoma, 16.1 µM.

`CC1=C(C(=O)Nc2ccc(Cl)c(Cl)c2)C(c2ccccc2O)NC(=O)N1` (stereo not drawn): the GI50 was 25.9 µM in the experiment with SNB-75 CNS; more than 50 µM with SK-OV-3 ovarian; more than 50 µM with SK-MEL-28 melanoma; more than 50 µM in the experiment on UO-31 renal; 21.3 µM with NCI-H226 lung; more than 50 µM in the experiment with DU-145 prostate. The figures for the GI50 in the experiment with TK-10 renal, with NCI-H460 lung and in the experiment on SK-MEL-5 melanoma were 22.1 µM, more than 50 µM and 22.5 µM, respectively. The TGI in the experiment on SNB-75 CNS, in the experiment with SK-OV-3 ovarian, in the experiment with SK-MEL-28 melanoma, in the experiment on UO-31 renal, with NCI-H226 lung and with DU-145 prostate was more than 50 µM in each case. Further, the TGI with TK-10 renal, with NCI-H460 lung and with SK-MEL-5 melanoma was more than 50 µM throughout.

Consider `O=C(Cc1csc2nc(-c3ccc(Br)cc3)cn12)N/N=C/c1ccc(O)cc1`, for which the GI50 was more than 100 µM in the experiment on SNB-75 CNS; 52.5 µM with SK-OV-3 ovarian; 60 µM in the experiment on SK-MEL-28 melanoma; 26.3 µM with UO-31 renal; 22.4 µM in the experiment on DU-145 prostate; 9.79 µM in the experiment on TK-10 renal. The GI50 with NCI-H460 lung was 56.9 µM; in the experiment on SK-MEL-5 melanoma it was 7.14 µM. The TGI was more than 100 µM with SNB-75 CNS; more than 100 µM in the experiment with SK-OV-3 ovarian; more than 100 µM in the experiment on SK-MEL-28 melanoma; more than 100 µM in the experiment with UO-31 renal; 87.4 µM in the experiment on DU-145 prostate; 33.4 µM with TK-10 renal. The figures for the TGI in the experiment with NCI-H460 lung and with SK-MEL-5 melanoma were more than 100 µM and 22.2 µM, respectively.

With `CC1CC2(C)CC(=O)C1C1C(=O)N(CCN3CCCCC3)C(=O)C12` (stereo not drawn), the GI50 in the experiment with SNB-75 CNS, in the experiment on SK-OV-3 ovarian, in the experiment on A498 renal, in the experiment on UO-31 renal, in the experiment with NCI-H226 lung and in the experiment with DU-145 prostate was more than 100 µM throughout. The GI50 in the experiment on TK-10 renal and in the experiment with SK-MEL-5 melanoma was more than 100 µM in each case. The TGI in the experiment on SNB-75 CNS, with SK-OV-3 ovarian, in the experiment on A498 renal, in the experiment on UO-31 renal, in the experiment on NCI-H226 lung and with DU-145 prostate was more than 100 µM each time. Besides, the TGI in the experiment on TK-10 renal and in the experiment on SK-MEL-5 melanoma was more than 100 µM in each case.

On to `CSc1ccc(C(=O)C(=O)c2ccc(SC)s2)s1`, for which the TGI in the experiment with SNB-75 CNS, in the experiment with SK-OV-3 ovarian, in the experiment with SK-MEL-28 melanoma, in the experiment with UO-31 renal, with NCI-H226 lung and in the experiment on DU-145 prostate was more than 10 µM each time. The TGI with TK-10 renal, with NCI-H460 lung and in the experiment with SK-MEL-5 melanoma was more than 10 µM in each case.

Turning to `CCOC(=O)C(NC(=O)c1[nH]cnc1/N=N/N(C)C)C(C)C` (stereo not drawn), the TGI in the experiment with SNB-75 CNS, in the experiment on SK-OV-3 ovarian, in the experiment on A498 renal, in the experiment with SK-MEL-28 melanoma, with UO-31 renal and in the experiment on NCI-H226 lung was more than 100 µM each time. For the same compound, the TGI in the experiment on TK-10 renal, in the experiment on NCI-H460 lung and in the experiment with SK-MEL-5 melanoma was more than 100 µM in each case.

For `CCOP(=O)(Nc1ccc2oc(=O)c3ccccc3c2c1)OCC`, the TGI with SNB-75 CNS, with A498 renal, in the experiment on SK-MEL-28 melanoma, with NCI-H226 lung, with DU-145 prostate and in the experiment with TK-10 renal was more than 100 µM each time. Besides, the TGI in the experiment on NCI-H460 lung and in the experiment on SK-MEL-5 melanoma was more than 100 µM in each case.

In the case of `COc1ccc(S(=O)(=O)N(C)CC(=O)O)cc1`, the TGI with SNB-75 CNS, in the experiment on SK-OV-3 ovarian, in the experiment with A498 renal, with SK-MEL-28 melanoma, in the experiment on UO-31 renal and in the experiment with NCI-H226 lung was more than 100 µM in each case. Further, the TGI in the experiment on TK-10 renal, in the experiment on NCI-H460 lung and in the experiment on SK-MEL-5 melanoma was more than 100 µM each time.

With `FC1OC2OC1C(OCc1ccccc1)C(OCc1ccccc1)C2OCc1ccccc1` (stereo not drawn), the TGI with SNB-75 CNS, in the experiment with SK-OV-3 ovarian, in the experiment with A498 renal, in the experiment with SK-MEL-28 melanoma, with UO-31 renal and with NCI-H226 lung was more than 100 µM each time. The TGI in the experiment on TK-10 renal, with NCI-H460 lung and in the experiment on SK-MEL-5 melanoma was more than 100 µM in each case.

In the case of `COC(=O)/C(=N\NC(N)=S)C(C#N)c1ccccc1` (stereo not drawn), the TGI in the experiment on SNB-75 CNS, with SK-OV-3 ovarian, with A498 renal, with SK-MEL-28 melanoma, with UO-31 renal and in the experiment on NCI-H226 lung was more than 100 µM throughout. In addition, the TGI in the experiment with TK-10 renal, with NCI-H460 lung and in the experiment with SK-MEL-5 melanoma was more than 100 µM in each case.

Take `COc1cccc(NC(=O)C(=O)C(C(C)=O)c2nc3ccc(Cl)cc3[nH]c2=O)c1` (stereo not drawn): the TGI with SNB-75 CNS, in the experiment with SK-OV-3 ovarian, in the experiment on A498 renal, with SK-MEL-28 melanoma, with UO-31 renal and in the experiment with NCI-H226 lung was more than 100 µM throughout. Further, the TGI in the experiment on TK-10 renal, with NCI-H460 lung and in the experiment on SK-MEL-5 melanoma was more than 100 µM in each case.

Turning to `CSC1=NCC2(S1)c1ccccc1N(C(=O)OC(C)(C)C)C2N1CCCCC1` (stereo not drawn), the GI50 with SNB-75 CNS is 31.7 µM; with A498 renal it was more than 100 µM; in the experiment with SK-MEL-28 melanoma it was more than 100 µM; in the experiment with UO-31 renal, 78.7 µM; in the experiment with NCI-H226 lung it was more than 100 µM; with DU-145 prostate, more than 100 µM. Moreover, the GI50 is more than 100 µM with TK-10 renal, 69.6 µM with NCI-H460 lung and more than 100 µM in the experiment on SK-MEL-5 melanoma. The TGI in the experiment with SNB-75 CNS was 88.4 µM; in the experiment on A498 renal, more than 100 µM; in the experiment on SK-MEL-28 melanoma, more than 100 µM; in the experiment on UO-31 renal it was more than 100 µM; in the experiment on NCI-H226 lung, more than 100 µM; in the experiment on DU-145 prostate it was more than 100 µM. For the same compound, the TGI in the experiment on TK-10 renal, in the experiment with NCI-H460 lung and with SK-MEL-5 melanoma was more than 100 µM in each case.

For the compound `N#CC1C=Cc2ccccc2N1C(=O)Oc1ccccc1` (stereo not drawn), the TGI with SNB-75 CNS is more than 100 µM; in the experiment with A498 renal it was 96.5 µM; in the experiment on SK-MEL-28 melanoma, more than 100 µM; with UO-31 renal, more than 100 µM; in the experiment on NCI-H226 lung, more than 100 µM; in the experiment on DU-145 prostate it was 93.8 µM. For the same compound, the TGI in the experiment on TK-10 renal, with NCI-H460 lung and in the experiment with SK-MEL-5 melanoma was more than 100 µM in each case.
